Our source for the concentration values is US7579019B2, “Pharmaceutical carrier device suitable for delivery of pharmaceutical compounds to mucosal surfaces” (priority 1997, dated 2009).

Molecules are shown by their SMILES.

The series is described as follows: systemic availability study in dogs, testosterone, RIA method (Example 40). The series is classed as in vivo. As to conditions: female, bred hound, dog, plasma, other: buccal (film disc applied to the buccal mucosa), 0.8 mg per disc, mean of three dogs, buccal ½ inch disc of Example 39 film, 0.8 mg testosterone per disc, read-out: systemic plasma level, Mean. An excerpt: The films obtained via Examples 38 and 39 are die-cut in ½ inch diameter discs to be characterized and to be used for a systemic availability study in three dogs (20-25 kg spayed female bred hounds). One disc of the film to be evaluated is applied to the inside of the mouth on the buccal mucosa. A slight pressure is applied for 10 seconds. Then, the oral cavity is examined to assure adherence of the film to the mucosa and over the course of the study, to monitor the erosion of the discs. Using an indwelling jugular catheter, blood samples are collected at specific intervals. The serum is characterized by an ELISA assay in the case of albuterol sulfate and by an RIA method for the testosterone study.
After application of ½ inch diameter discs, systemic plasma levels obtained at different intervals are given in nanograms per milliliter for the mean of the three dogs.

Turning to `C[C@]12CC[C@H]3[C@@H](CCC4=CC(=O)CC[C@@]43C)[C@@H]1CC[C@@H]2O` [testosterone], the concentration at 0 min (time 0 minutes) amounted to 0 ng/mL. Where the note is “time 5 minutes”, the concentration at 5 min was found to be 2.21 ng/mL. For the same compound, the concentration at 10 min (time 10 minutes) stood at 4.68 ng/mL. Under “time 15 minutes”, the concentration at 15 min amounted to 3.81 ng/mL. For the same compound, the concentration at 30 min (time 30 minutes) is 2.87 ng/mL. Where the note is “time 60 minutes”, the concentration at 60 min is 3.73 ng/mL. The concentration at 90 min (time 90 minutes) turned out to be 4.82 ng/mL. Moreover, the concentration at 120 min (time 120 minutes) turned out to be 7.14 ng/mL. For the same compound, under “time 150 minutes”, the concentration at 150 min was determined as 3.2 ng/mL. The concentration at 180 min (time 180 minutes) came out at 0.62 ng/mL. Also, for the setting “time 240 minutes”, the concentration at 240 min was 0.18 ng/mL. The concentration at 360 min (time 360 minutes) turned out to be 0.12 ng/mL. Also, the concentration at 480 min (time 480 minutes) amounted to 0.02 ng/mL. Besides, the concentration at 720 min (time 720 minutes) stood at 0.01 ng/mL.
